Assay results from PubChem BioAssay AID624395 (The Scripps Research Institute Molecular Screening Center, 2012).
Active and inactive are the calls of the source. The rule behind the calls is not given here.

System: cell-based VP16 transactivation luciferase luminescence
Test: compounds lowering VP16-driven reporter luminescence – cell-based, counter-screen for NR2E3 agonist project, dose response (AID 624395)

Compound	IC50
O=C(OC(c1ccccc1)c1nccc2ccccc12)c1ccccc1 (centres undefined)	0.242 µM
O=C(C(=Cc1ccccc1)CN1CCCCC1)c1ccccc1	4.54 µM
Cc1cccc(OCCCC(=O)Nc2nc3ccccc3[nH]2)c1	> 39.8 µM (inactive)
CCc1nnc(NC(=O)c2ccc(S(=O)(=O)N3CCCc4ccccc43)cc2)o1	6.8 µM
Cc1nc(NC(=O)c2c(-c3ccccc3Cl)noc2C)sc1C	> 39.8 µM (inactive)
CCc1cc(OCCCSc2nc(C)cc(=O)[nH]2)ccc1Cl	7.05 µM
CCCOc1ccc(CSc2nc3ccccc3[nH]2)cc1	13.3 µM (inactive)
OC[C@@H]1CN(Cc2ccc(-c3ccccc3)cc2)C[C@H](n2cnc3c(Nc4ccccc4)ncnc32)O1	5 µM
CCOP(=O)(CCP(=O)(OCC)OCC)OCC.C[CH2][Sn]([Cl])([Cl])[CH2]C	10.9 µM (inactive)
O=C(Nc1ccc(Cn2cccn2)cc1)c1ccc(COc2ccccc2Br)cc1	> 39.8 µM (inactive)
COC(CNC(=O)CSCc1nc(-c2ccc(SC)cc2)oc1C)OC	2.61 µM
CCCCOc1ccc(CONS(=O)(=O)c2ccc(NC(C)=O)cc2)cc1Cl	4.03 µM
Clc1cc2cccnc2c2ncccc12	12.1 µM (inactive)
O=c1cc(C(F)(F)F)nc(SC/C=C/c2ccccc2)[nH]1	13 µM (inactive)
CCn1c(=O)cc(SCC(=O)Nc2ccc(C)cn2)c2ccccc21	4.63 µM
COc1cc2c(O)c3c(c(-c4ccc5c(c4)OCO5)c2cc1OC)C(=O)OC3	2.3 µM
C=CCn1c(C)cc(C(=O)COc2ccc(C)nc2[N+](=O)[O-])c1C	0.946 µM
Oc1[nH]c2ccccc2c1N=NC(=S)N1CCOCC1	> 39.9 µM (inactive)
CN(C)c1ncnc2c1ccn2C1OC(CO)C(O)C1O (centres undefined)	0.53 µM
Cc1ccsc1C(=O)OCC(=O)c1cc(C)n(CC2CCCO2)c1C (centres undefined)	0.0525 µM
Nc1nc(N)nc(-c2cc(O)ccc2O)n1	1.09 µM
O=C(OCCOc1ccc(Cl)cc1)c1cc(S(=O)(=O)N2CCCCC2)ccc1N1CCOCC1	8.66 µM
CN(C)c1ccc(/C=C/c2ccc3ccccc3[n+]2C)cc1	13 µM (inactive)
c1ccc(CNc2ncnc3sccc23)cc1	4.71 µM
CC(C)N1CCc2c(sc(NC(=O)c3ccc([N+](=O)[O-])o3)c2C(N)=O)C1	3.05 µM
O=C1C=CC2(O[C@H](c3ccccc3)[C@@H](c3ccccc3)O2)[C@H](Sc2ccccc2O)C1	4.89 µM

Compound	IC50
Oc1[nH]c2ccc(Br)cc2c1N=NC(=S)N1CCOCC1	> 13.3 µM (inactive)
O=C(O)CC1(CC(=O)Nc2cc(C(F)(F)F)cc(C(F)(F)F)c2)CCCCC1	14.1 µM (inactive)
CCOC(=O)Cc1nnc2c(Nc3ccccc3F)nc3nonc3n12	4.03 µM
Cc1ccc(S(=O)(=O)N2[C@@H](c3ccc(Cl)c(Cl)c3)C(C(=O)O)=C[C@H]2CC2CCCC2)cc1	12 µM (inactive)
COc1ccc(CNC(=O)c2cccc3c(-c4ccc(F)c(F)c4)coc23)cc1OC	4.54 µM
CC1CCC/C=C/C2CC(O)CC2C(O)/C=C/C(=O)O1 (centres undefined)	1.28 µM
NC1=C(Br)C(=O)c2ncccc2C1=O	2.51 µM
Cc1cc(C(=O)CSc2nnc3ccccn23)c(C)n1-c1ccccc1	25.7 µM (inactive)
CCC1(OC(=O)CN(C)C)C(=O)OCc2c1cc1n(c2=O)Cc2cc3c(N)cccc3nc2-1 (centres undefined)	2.99 µM
Cc1ccc(NC(=O)CNC(=O)c2cccc(C)c2)nc1	26 µM (inactive)
CNC(=S)/N=C/NOCc1ccc(Cl)cc1Cl	5.03 µM
Cc1cccc(C)c1OCc1cc(C(=O)N2CCC(c3ccncc3)CC2)no1	2.08 µM
O=C(C1CC1)N1CCc2cc(Br)cc(S(=O)(=O)N3CCN(c4ccccn4)CC3)c21	> 39.8 µM (inactive)
COc1cc2c(oc(=O)c3cc(C)cc(OC)c32)c2c(C3OC(C)C(O)C(C)(O)C3O)ccc(O)c12 (centres undefined)	7.6 µM
COc1ccc(OC)c(NC(=O)CSc2nnnn2-c2ccc3c(c2)OCO3)c1	3.36 µM
COCc1nnc(NC(=O)c2ccc(S(=O)(=O)N(CC(C)C)CC(C)C)cc2)o1	6.62 µM
CC1CC(C)C(=NNC(N)=O)C(C(O)CC2CCC(=O)NC2=O)C1 (centres undefined)	4.07 µM
CC(C)(C)NCC(=Cc1ccccc1)C(=O)c1ccccc1	7.33 µM
COc1ccc(NC(=O)c2sc(=O)n(Cc3cccc(C(F)(F)F)c3)c2C)cc1OC	35.6 µM (inactive)
COCCn1c(C)cc(C(=O)COc2ccc(C)nc2[N+](=O)[O-])c1C	1.46 µM
NC(=O)c1nn(-c2ccccc2)nc1NC(=O)CSc1nnnn1-c1ccc(Cl)cc1	> 39.8 µM (inactive)
N=C1SCC(=O)N1c1ncc(Cc2cccc(Cl)c2)s1	4.78 µM
O=C(CSc1nnnn1-c1ccc2c(c1)OCCO2)Nc1nc2c(s1)CCCC2	> 39.8 µM (inactive)
N#C/C(=C\c1ccc(Sc2nc3ccccc3[nH]2)o1)c1ccccc1	4.65 µM
O=NN(CC(=O)NNc1ccccc1)CC(=O)NNc1ccccc1	23.2 µM (inactive)
Cc1cccc(NS(=O)(=O)c2ccc(-c3cnc(C4CC4)o3)cc2)c1C	5.28 µM

Compound	IC50
O=C(/C=C/c1ccc([N+](=O)[O-])o1)NNC(=O)c1ccc(F)cc1	24.2 µM (inactive)
COc1cccc(C(=O)c2sc(NC(C)C)nc2N)c1	5.16 µM
Cc1cc2sc3ccc(C#CC4(O)CCCCC4)cc3c(=O)c2cc1C	0.00878 µM
O=C(COc1cccc2ccccc12)Nc1ccc(Cl)cc1C(=O)O	4.04 µM
C=CC[n+]1c(-c2ccc(Cl)cc2Cl)csc1Nc1ccc(NC(C)=O)cc1	2.75 µM
COc1ccc(C)cc1NC(=O)NC1CC(=O)N(c2ccc3c(c2)OCCO3)C1 (centres undefined)	20.3 µM (inactive)
FC(F)Sc1ccc(NC(=S)N2CCN(c3ccccn3)CC2)cc1	4.15 µM
COc1cccc(N2CCN(c3nc(-c4ccccc4C)cc(=O)[nH]3)CC2)c1	4.57 µM
CN1C2CCC1/C(=C/c1ccccn1)C(=O)/C2=C\c1ccccn1	4.5 µM
N=C1SCC(=O)N1c1ncc(Cc2ccccc2Cl)s1	10.5 µM (inactive)
Cc1ccc(C#N)c(SCc2nnc(-c3ccc(Cl)cc3)o2)n1	0.0132 µM
CC(C)c1ccc(/C=C(\c2nc3ccccc3[nH]2)S(=O)(=O)c2ccccc2)cc1	13.2 µM (inactive)
Cc1cccc(Cc2cnc(N3C(=N)SC(C)C3=O)s2)c1 (centres undefined)	4.96 µM
Cc1ccnc(NC(=O)CSc2cc(=O)n(C)c3ccccc23)c1	11 µM (inactive)
CN1CCN(C(=O)c2cccc(-c3cnc4cnc(-c5ccccc5Oc5ccccc5)cn34)c2)CC1	12.7 µM (inactive)
C=C1C(=O)O[C@@H]2C[C@@H](C)[C@@H]3C=CC(=O)[C@@]3(C)[C@@H](O)[C@H]12	4.37 µM
CC(C(=O)N1CCN(c2ccc(Cl)cc2)CC1)c1ncc(C(F)(F)F)cc1Cl (centres undefined)	7.28 µM
O=S(=O)(/C(=C\c1ccc(C(F)(F)F)cc1)c1nc2ccccc2[nH]1)c1ccccc1	10.8 µM (inactive)
CCN(CC)S(=O)(=O)c1ccc(NC(=O)Nc2cccc(C(F)(F)F)c2)cc1	7.08 µM
C=CCn1c(C)cc(C(=O)CN2C(=O)c3ccccc3S2(=O)=O)c1C	2.31 µM
CCN(c1ccccc1)S(=O)(=O)c1ccc(C(=O)Nc2nnc(CSC)o2)cc1	12.7 µM (inactive)
O=[N+]([O-])c1ccc(NS(=O)(=O)c2ccccc2)c(Cl)c1	4.38 µM
CC(=O)Nc1ccc(Sc2ccc([N+](=O)[O-])o2)cc1	18.3 µM (inactive)
O=C(Nc1cccc(OC(F)(F)F)c1)C1Cc2c(-c3ccc4c(c3)OCO4)ccnc2O1 (centres undefined)	14.4 µM (inactive)
CC(C)(C)C(=O)Nc1ccc(Sc2ccc([N+](=O)[O-])cc2)cc1	4.6 µM
COc1ccc2c(CC(=O)Nc3ncc(C)s3)coc2c1	> 39.8 µM (inactive)

Compound	IC50
O=c1c(Cl)c(N2CCN(c3ccc(F)cc3)CC2)cnn1C12CC3CC(CC(C3)C1)C2	38.2 µM (inactive)
O=C(CSc1nnnn1-c1ccc(O)cc1)Nc1ccc(N2CCOCC2)c(Cl)c1	4.47 µM
Cc1cc(C(=O)COc2cccnc2[N+](=O)[O-])c(C)n1-c1ccccc1	0.3 µM
O=C(NC(=O)N1CCN(c2cccc(Cl)c2)CC1)c1ccc(Cl)cc1	4.17 µM
Cc1ccnc(NC(=O)CCCOc2cc(=O)n(C)c3ccccc23)c1	8.23 µM
CCCCCCCCCCCCN1[C@@H](CC(=O)O)c2cc(C(F)(F)F)ccc2S1(=O)=O	8.1 µM
CC(C)(C)C(=O)Nc1cc2nn(-c3ccccc3)nc2cc1Cl	0.00479 µM
COc1ccccc1-n1c(=O)oc2ccc(Cl)cc2c1=O	7.67 µM
CCCCCCCCCCCCN1[C@@H](CC(=O)O)c2cc(F)ccc2S1(=O)=O	8.51 µM
Cc1c(C(=O)Nc2ccc(Oc3ccccc3)cc2)sc2nc3n(c(=O)c12)CCC3	5.11 µM
O=S(=O)(/C=C/C=C/S(=O)(=O)c1ccccc1)c1ccccc1	11.7 µM (inactive)
COc1ccccc1C(=O)Nc1nc2ccccc2[nH]1	5.03 µM
C#Cc1cccc(Nc2nc(NCc3ccccc3)nc3ccsc23)c1	12.8 µM (inactive)
Cc1ccc(S(=O)(=O)N2[C@@H](c3ccc(Br)cc3)C(C(=O)O)=CC[C@H]2c2ccc(Cl)c(Cl)c2)cc1	7.28 µM
Cc1cnc(NC(=O)C2CC(=O)N(c3ccc4c(c3)OCCO4)C2)s1 (centres undefined)	> 39.8 µM (inactive)
O=C(NCc1cccnc1)/C(=C\c1ccc(-c2ccc(Cl)c(Cl)c2)o1)S(=O)(=O)c1ccccc1	7.96 µM
Cc1ccc(NC(=S)/C(C#N)=C2/Nc3ccccc3S2)cc1	2.76 µM
O=C1C(=O)c2cccnc2-c2ncccc21	13.1 µM (inactive)
Cc1ccnc(NC(=O)C2CCN(S(=O)(=O)c3c(C)c(C)cc(C)c3C)CC2)c1	13.2 µM (inactive)
COc1ccc([C@@H]2C[C@H]3[C@@H](CN2S(=O)(=O)c2ccccc2)C(=O)C[C@@H](c2cccc(Cl)c2)N3S(=O)(=O)c2ccc(C)cc2)cc1	4.51 µM
COc1cnc(-c2ccccn2)nc1N(C)c1ccccc1	5.76 µM
O=C(c1cc(S(=O)(=O)N2CCN(c3ccccc3)CC2)ccc1Cl)N1CCCCCCC1	2.51 µM
CCCCCc1c(-c2ccc(OC)c(OC)c2)ncn1CCc1ccccc1OC	7.74 µM
COc1ccc(NC(=O)/C(Cl)=C(/Cl)S(=O)Cc2ccccc2)cn1 (centres undefined)	2.1 µM
O=c1cc(N2CCN(c3cccc(Cl)c3)CC2)[nH]c(=O)n1C1CCCCC1	> 39.8 µM (inactive)
CC[C@@]1(O)C(=O)OCc2c1cc1n(c2=O)Cc2cc3c(N)cccc3nc2-1	1.99 µM
